In test [1] the target is T1, 17β-HSD2 (Homo sapiens, UniProt P37059).
T1 construct: was measured in intact cell monolayers of T47D and MDA-MB-231 breast cancer cells respectively; endogenous in cells; host or cells: MDA-MB-231 human breast cancer cells
T1 sequence (P37059 1-387): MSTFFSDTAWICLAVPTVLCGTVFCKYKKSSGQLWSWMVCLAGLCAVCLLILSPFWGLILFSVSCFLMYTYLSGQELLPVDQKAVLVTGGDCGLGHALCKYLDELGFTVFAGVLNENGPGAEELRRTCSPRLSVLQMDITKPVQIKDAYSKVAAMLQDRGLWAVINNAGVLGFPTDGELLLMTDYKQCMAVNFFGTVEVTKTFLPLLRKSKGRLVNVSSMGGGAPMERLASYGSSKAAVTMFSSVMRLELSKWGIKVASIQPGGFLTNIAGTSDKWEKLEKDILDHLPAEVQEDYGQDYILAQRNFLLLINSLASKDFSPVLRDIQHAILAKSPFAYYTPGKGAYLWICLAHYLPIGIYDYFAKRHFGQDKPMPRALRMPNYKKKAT
In words: 17β-HSD Type II activity in MDA-MB-231 cells (E2→E1). It counts as cell-based.

Test [2] has as its target T2, 17β-HSD1 (Homo sapiens, UniProt P14061).
T2 construct: was measured in intact cell monolayers of T47D and MDA-MB-231 breast cancer cells respectively; endogenous in cells; host or cells: T-47D human breast cancer cells
T2 sequence (P14061 1-328): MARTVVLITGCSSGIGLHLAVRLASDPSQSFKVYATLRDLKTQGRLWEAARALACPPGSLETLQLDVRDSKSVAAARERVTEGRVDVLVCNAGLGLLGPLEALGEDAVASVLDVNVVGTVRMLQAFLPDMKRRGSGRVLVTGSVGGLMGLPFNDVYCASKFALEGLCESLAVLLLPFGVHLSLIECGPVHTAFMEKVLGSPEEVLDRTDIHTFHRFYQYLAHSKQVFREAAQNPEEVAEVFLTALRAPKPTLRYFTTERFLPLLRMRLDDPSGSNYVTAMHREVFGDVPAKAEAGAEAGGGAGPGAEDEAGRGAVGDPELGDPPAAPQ
In words: 17β-HSD Type I activity in T-47D cells (E1→E2). It counts as cell-based. Particulars: for inhibition at 10 µM: T47D.

[3] abbreviates: 10 μM, MDA-MB-231 cells, E2→E1, read-out: % inhibition of 17β-HSD2 @ 10 μM.
Where [4] appears, read: 10 μM, T-47D cells, E1→E2, read-out: % inhibition of 17β-HSD1 @ 10 μM.
[5] abbreviates: T-47D cells, E1→E2, read-out: IC50 (17β-HSD1).
Setting [6] is: MDA-MB-231, read-out: % inhibition of 17β-HSD2 @ 10 μM.
The mark [7] stands for this setting: read-out: % inhibition of 17β-HSD1 @ 10 μM, 10 μM, T-47D cells, E1→E2.

Molecules are shown by their SMILES. Where two headings read alike, the source gives them in different places.

For the compound `C[C@]12CCC3C4CC=C(O)C=C4CCC3C1CC(CC(=O)O)C2=O` (stereo partly shown) [compound 604], the results for the inhibition at 10 µM in test [1] (setting [3]) and in test [2] (setting [4]) were -5% and 13%, respectively.
`COc1cc(/C=C2\CC3C4CCc5cc(OS(N)(=O)=O)ccc5C4CC[C@]3(C)C2=O)cc(OC)c1OC` (stereo partly shown) [compound 692]: the inhibition at 10 µM in test [1] (setting [3]) was determined as 17%; in test [2] (setting [4]), 4%.
For the compound `COc1cc2c(cc1O)CCC1C2CC[C@]2(C)C(=O)C(CC(=O)NCc3cccnc3)CC12` (stereo partly shown) [compound 1191], the inhibition at 10 µM in test [1] (setting [3]) is 1.2%; in test [2] (setting [4]), 96%. In addition, the concentration for half-maximal inhibition (IC50) in test [2] (setting [5]) worked out at 290 nM.
For `CNC(=O)c1[nH]nc2c1CC1C3CCc4cc(O)ccc4C3CC[C@]21C` (stereo partly shown) [compound 893], the inhibition at 10 µM in test [1] (setting [6]) worked out at 14%; in test [2] (setting [7]), 62%.
As for `C[C@]12CCC3c4ccc(O)cc4CCC3C1C/C(=C\c1ccco1)C2=O` (stereo partly shown) [compound 474], the inhibition at 10 µM in test [1] (setting [3]) is 17%; in test [2] (setting [4]) it was 26%.
Taken in the same sequence, the figures for `C[C@]12CCC3c4ccc(O)cc4CCC3C1CC(C#N)[C@@H]2O` (stereo partly shown) [compound 561] were 4% and 56%.
Regarding `C[C@]12CCC3c4ccc(O)cc4CCC3C1C/C(=C\c1ccccc1)[C@@H]2O` (stereo partly shown) [compound 313], the inhibition at 10 µM was found to be 5% in test [1] (setting [3]) and 26% in test [2] (setting [4]).
For the compound `C[C@]12CCC3c4ccc(O)cc4CCC3C1C/C(=C\c1ccncc1)[C@@H]2O` (stereo partly shown) [compound 324], the inhibition at 10 µM in test [1] (setting [3]) worked out at 3%; in test [2] (setting [4]), 81%. Further, the IC50 in test [2] is 4100 nM. Besides, in test [2] (10 μM, T-47D cells, E1→E2), the “% inhibition of 17β-HSD1 @ 10 μM” value amounted to 72%.
With `CC(C)NC(=O)C1CC2C3CCc4cc(O)ccc4C3CC[C@]2(C)[C@H]1O` (stereo partly shown) [compound 801], the inhibition at 10 µM in test [1] (setting [6]) was -15%; in test [2] (setting [7]), 70%.
On to `CC(C)Cn1ncc2c1[C@@]1(C)CCC3c4ccc(O)cc4CCC3C1C2` (stereo partly shown) [compound 813], for which the figures for the inhibition at 10 µM in test [1] (setting [6]) and in test [2] (setting [7]) were 44% and 70%, respectively.
For `C[C@H](NC(=O)CC1CC2C3CCc4cc(O)ccc4C3CC[C@]2(C)C1=O)c1ccccc1` (stereo partly shown) [compound 690], the inhibition at 10 µM turned out to be 10% in test [1] (setting [3]) and 83% in test [2] (setting [4]).
Regarding `C[C@]12CCC3c4ccc(O)cc4CCC3C1C/C(=C/O)C2=O` (stereo partly shown) [compound 486], the inhibition at 10 µM was found to be 15% in test [1] (setting [3]) and 97% in test [2] (setting [4]). In addition, the IC50 in test [2] (setting [5]) was found to be 110 nM.
For the compound `C[C@]12CCC3c4ccc(O)cc4CCC3C1C/C(=C\c1ccc(C#N)cc1)C2=O` (stereo partly shown) [compound 478], the results for the inhibition at 10 µM in test [1] (setting [3]) and in test [2] (setting [4]) were 18% and 39%, respectively.
Taken in the same sequence, the figures for `CCN(C)C(=O)C1CC2C3CCc4cc(O)ccc4C3CC[C@]2(C)[C@H]1O` (stereo partly shown) [compound 800] were -6% and 79%.
Take `C[C@]12CCC3c4ccc(O)cc4CCC3C1C/C(=C\c1ccncc1)C2=O` (stereo partly shown) [compound 321]: the figures for the inhibition at 10 µM in test [1] (setting [3]) and in test [2] (setting [4]) were 25% and 34%, respectively.
In the case of `C[C@]12CCC3c4ccc(O)cc4C(=O)CC3C1CCC2=O` (stereo partly shown) [compound 416], the inhibition at 10 µM was determined as 8% in test [1] (setting [3]) and 98% in test [2] (setting [4]). Besides, in test [2] (setting [5]), the IC50 amounted to 340 nM.
On to `C[C@]12CCC3c4ccc(O)cc4CCC3C1C/C(=C\c1cccs1)C2=O` (stereo partly shown) [compound 475], for which the inhibition at 10 µM in test [1] (setting [3]) is 14%; in test [2] (setting [4]) it was 67%.
For `C[C@]12CCC3c4ccc(O)cc4CCC3C1Cc1c2n[nH]c1C(=O)NCC1CCCO1` (stereo partly shown) [compound 892], the values for the inhibition at 10 µM in test [1] (setting [6]) and in test [2] (setting [7]) were -4% and 87%, respectively.
With `CNC(=O)CC1CC2C3CCc4cc(O)ccc4C3CC[C@]2(C)C1=O` (stereo partly shown) [compound 745], the inhibition at 10 µM in test [1] (setting [3]) turned out to be 3.5%; in test [2] (setting [4]) it was 90%. The IC50 in test [2] (setting [5]) stood at 1500 nM.
Take `C[C@]12CCC3c4ccc(O)cc4CCC3C1CC(CC(=O)NCC1CCCO1)C2=O` (stereo partly shown) [compound 671]: the values for the inhibition at 10 µM in test [1] (setting [3]) and in test [2] (setting [4]) were 21% and 91%, respectively. Moreover, the IC50 in test [2] (setting [5]) was 380 nM.
As for `COCCn1cc2c(n1)[C@@]1(C)CCC3c4ccc(O)cc4CCC3C1C2` (stereo partly shown) [compound 808], the inhibition at 10 µM amounted to 48% in test [1] (setting [3]) and 95% in test [2] (setting [4]). Further, the half-inhibitory concentration (IC50) in test [2] (setting [5]) is 530 nM.
Take `C[C@]12CCC3c4ccc(O)cc4CCC3C1C/C(=C\c1cccs1)[C@@H]2O` (stereo partly shown) [compound 507]: the inhibition at 10 µM was 25% in test [1] (setting [3]) and 41% in test [2] (setting [4]).
As to `C[C@]12CCC3c4ccc(O)cc4CCC3C1CC(C(=O)NCC1CCCO1)[C@@H]2O` (stereo partly shown) [compound 779], the inhibition at 10 µM is 11% in test [1] (setting [3]) and 82% in test [2] (setting [4]).
Taken in the same sequence, the figures for `CCN(CC)C(=O)CC1CC2C3CCc4cc(O)ccc4C3CC[C@]2(C)C1=O` (stereo partly shown) [compound 742] were 2% and 82%.
Regarding `CC(C)Cn1cc2c(n1)[C@@]1(C)CCC3c4ccc(O)cc4CCC3C1C2` (stereo partly shown) [compound 812], the inhibition at 10 µM in test [1] (setting [6]) was 61%; in test [2] (setting [7]), 77%.
As for `C[C@]12CCC3c4ccc(O)cc4CCC3C1CC(CC(=O)NCc1ccco1)[C@@H]2O` (stereo partly shown) [compound 667], the inhibition at 10 µM in test [1] (setting [3]) was 14%; in test [2] (setting [4]), 35%.
Taken in the same sequence, the figures for `COC(=O)C1(CN2C(=O)c3ccccc3C2=O)CC2C3CCc4cc(O)ccc4C3CC[C@]2(C)C1=O` (stereo partly shown) [compound 780] were 17% and 71%.
Taken in the same sequence, the figures for `C[C@]12CCC3c4ccc(OS(N)(=O)=O)cc4CCC3C1C/C(=C\c1ccncc1)C2=O` (stereo partly shown) [compound 452] were 11% and 28%.
For `C[C@]12CCC3c4ccc(O)cc4CCC3C1Cc1c2n[nH]c1C(=O)NCc1cccnc1` (stereo partly shown) [compound 860, 2-Hydroxy-6a-methyl-4b,5,6,6a,8,10,10a,10b,11,12-decahydro-7,8-diaza-pentaleno[2,1-a]phenanthrene-9-carboxylic acid (pyridin-3-ylmethyl)-amide], the inhibition at 10 µM in test [1] (setting [3]) was found to be 28%; in test [2] (setting [4]) it was 92%. Besides, the IC50 in test [2] (setting [5]) is 780 nM.
As to `CCN(C)C(=O)CC1CC2C3CCc4cc(O)ccc4C3CC[C@]2(C)C1=O` (stereo partly shown) [compound 741], the results for the inhibition at 10 µM in test [1] (setting [3]) and in test [2] (setting [4]) were 5% and 79%, respectively.
With `C[C@]12CCC3c4ccc(O)cc4CCC3C1CC(C(=O)O)C2=O` (stereo partly shown) [compound 610], the inhibition at 10 µM was determined as 1% in test [1] (setting [3]) and 95% in test [2] (setting [4]). Moreover, in test [2] (setting [5]), the IC50 amounted to 940 nM.
In the case of `Cn1cccc1CNC(=O)c1[nH]nc2c1CC1C3CCc4cc(O)ccc4C3CC[C@]21C` (stereo partly shown) [compound 895], the inhibition at 10 µM in test [1] (setting [6]) is -4%; in test [2] (setting [7]), 89%. For the same compound, in test [2] (setting [5]), the IC50 is 2300 nM.
Take `CO/N=C1\CC2C(CC[C@]3(C)/C(=N/OC)CCC23)c2ccc(O)cc21` (stereo partly shown) [compound 515]: the inhibition at 10 µM in test [1] (setting [3]) was 31%; in test [2] (setting [4]), 15%.
In the case of `C[C@]12CCC3c4ccc(O)cc4CCC3C1Cc1c2n[nH]c1CO` (stereo partly shown) [compound 804], the inhibition at 10 µM in test [1] (setting [3]) is -1%; in test [2] (setting [4]), 94%. Further, in test [2] (setting [5]), the concentration for half-maximal inhibition (IC50) was found to be 950 nM.
Regarding `C[C@]12CCC3c4ccc(OS(N)(=O)=O)cc4CCC3C1C/C(=C\c1cccnc1)C2=O` (stereo partly shown) [compound 453], the results for the inhibition at 10 µM in test [1] (setting [3]) and in test [2] (setting [4]) were 10% and 22%, respectively.

The term inhibition denotes the relative decrease from the control value, in per cent. The term IC50 denotes the point on the concentration scale where inhibition reaches its midpoint.

The values above are taken from patent US8003783B2, “17B-hydroxysteroid dehydrogenase inhibitors” (Sterix Limited, priority 2004, dated 2011).
